Source: the supplement of paper PMC10627819

Assays:
S. pneumoniae D39V [1] = assay: fitness (endpoint OD595 vs no drug) (fraction); higher = more growth
Procedure, shortened: (§1)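 Fitness was measured as bacterial growth in 384-well plates inoculated at OD595 0.01 (30 µl, or 55 µl for S. pneumoniae). Media were TSB, LB Lennox or CY, at 37 °C. OD595 was read every 30 min for 14 h and background-subtracted against the first reading. Fitness is OD595 at the transition into stationary phase divided by the robust mean of no-drug control wells, capped at 1.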

S. aureus DSM 20231 [2] = assay: as above
Procedure, shortened: as §1

S. aureus Newman [3] = assay: as above
Procedure, shortened: as §1

B. subtilis 168 [4] = assay: as above
Procedure, shortened: as §1

S. pneumoniae D39V [5] = assay: Bliss interaction score (quartile over a dose matrix) (fitness difference); higher = more antagonism (negative = synergy)
Procedure, shortened: (§2)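 Values were capped at 1 after dividing OD595 at stationary-phase entry by the plate's robust no-drug mean. This ratio is fitness, and single-drug fitness was inferred from the combination data. The Bliss score is observed minus product-expected fitness, given as quartiles over technical, biological and donor/recipient replicates.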

S. aureus DSM 20231 [6] = assay: as above
Procedure, shortened: as §2

S. aureus Newman [7] = assay: as above
Procedure, shortened: as §2

B. subtilis 168 [8] = assay: as above
Procedure, shortened: as §2
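Throughout, for Bliss interaction score (quartile over a dose matrix): first quartile when negative (synergy) and third quartile when positive (antagonism).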

CCCCCCCCCC(=O)N[C@@H](Cc1c[nH]c2ccccc12)C(=O)N[C@H](CC(N)=O)C(=O)N[C@@H](CC(=O)O)C(=O)N[C@@H]1C(=O)NCC(=O)N[C@@H](CCCN)C(=O)N[C@@H](CC(=O)O)C(=O)N[C@H](C)C(=O)N[C@@H](CC(=O)O)C(=O)NCC(=O)N[C@H](CO)C(=O)N[C@@H]([C@H](C)CC(=O)O)C(=O)N[C@@H](CC(=O)c2ccccc2N)C(=O)O[C@@H]1C [Daptomycin] + COc1cccc2c1C(=O)c1c(O)c3c(c(O)c1C2=O)C[C@@](O)(C(=O)CO)C[C@@H]3O[C@H]1C[C@H](N)[C@H](O)[C@H](C)O1 [Doxorubicin]
Conditions | fitness
B. subtilis 168 [4], first compound 0.125 µg/mL, partner 0.625 µg/mL | 0.93
B. subtilis 168 [4], first compound 0.125 µg/mL, partner 1.25 µg/mL | 0.905
B. subtilis 168 [4], first compound 0.125 µg/mL, partner 2.5 µg/mL | 0.628
B. subtilis 168 [4], first compound 0.25 µg/mL, partner 0.625 µg/mL | 0.93
B. subtilis 168 [4], first compound 0.25 µg/mL, partner 1.25 µg/mL | 0.911
B. subtilis 168 [4], first compound 0.5 µg/mL, partner 0.625 µg/mL | 0.84
S. aureus DSM 20231 [2], first compound 0.5 µg/mL, partner 0.625 µg/mL | 0.91
S. aureus DSM 20231 [2], first compound 0.5 µg/mL, partner 1.25 µg/mL | 0.935
S. aureus DSM 20231 [2], first compound 0.5 µg/mL, partner 2.5 µg/mL | 0.829
S. aureus DSM 20231 [2], first compound 1 µg/mL, partner 0.625 µg/mL | 0.887
S. aureus DSM 20231 [2], first compound 1 µg/mL, partner 1.25 µg/mL | 0.961
S. aureus DSM 20231 [2], first compound 1 µg/mL, partner 2.5 µg/mL | 0.852
S. aureus DSM 20231 [2], first compound 2 µg/mL, partner 0.625 µg/mL | 0.926
S. aureus DSM 20231 [2], first compound 2 µg/mL, partner 1.25 µg/mL | 0.914
S. aureus DSM 20231 [2], first compound 2 µg/mL, partner 2.5 µg/mL | 0.841
S. aureus Newman [3], first compound 0.125 µg/mL, partner 0.625 µg/mL | 0.867
S. aureus Newman [3], first compound 0.125 µg/mL, partner 1.25 µg/mL | 0.865
S. aureus Newman [3], first compound 0.125 µg/mL, partner 2.5 µg/mL | 0.739
S. aureus Newman [3], first compound 0.25 µg/mL, partner 0.625 µg/mL | 0.869
S. aureus Newman [3], first compound 0.25 µg/mL, partner 1.25 µg/mL | 0.851
S. aureus Newman [3], first compound 0.25 µg/mL, partner 2.5 µg/mL | 0.748
S. aureus Newman [3], first compound 0.5 µg/mL, partner 0.625 µg/mL | 0.829
S. aureus Newman [3], first compound 0.5 µg/mL, partner 1.25 µg/mL | 0.834
S. aureus Newman [3], first compound 0.5 µg/mL, partner 2.5 µg/mL | 0.755
S. pneumoniae D39V [1], first compound 1 µg/mL, partner 0.25 µg/mL | 0.86
S. pneumoniae D39V [1], first compound 1 µg/mL, partner 0.5 µg/mL | 0.876
S. pneumoniae D39V [1], first compound 1 µg/mL, partner 1 µg/mL | 0.669
S. pneumoniae D39V [1], first compound 2 µg/mL, partner 0.25 µg/mL | 0.936
S. pneumoniae D39V [1], first compound 2 µg/mL, partner 0.5 µg/mL | 0.875
S. pneumoniae D39V [1], first compound 2 µg/mL, partner 1 µg/mL | 0.721
S. pneumoniae D39V [1], first compound 4 µg/mL, partner 1 µg/mL | 0.686

B. subtilis 168 [4], first compound 1 µg/mL, one replicate
Conditions | fitness
partner 0.625 µg/mL | 0.783
partner 1.25 µg/mL | 0.645
partner 2.5 µg/mL | 0.197

Conditions | Bliss interaction score
B. subtilis 168 [8] | 0.0744
S. aureus DSM 20231 [6] | 0.0493
S. aureus Newman [7] | -0.0594
S. pneumoniae D39V [5] | 0.0772

CCCCCCCCCC(=O)N[C@@H](Cc1c[nH]c2ccccc12)C(=O)N[C@H](CC(N)=O)C(=O)N[C@@H](CC(=O)O)C(=O)N[C@@H]1C(=O)NCC(=O)N[C@@H](CCCN)C(=O)N[C@@H](CC(=O)O)C(=O)N[C@H](C)C(=O)N[C@@H](CC(=O)O)C(=O)NCC(=O)N[C@H](CO)C(=O)N[C@@H]([C@H](C)CC(=O)O)C(=O)N[C@@H](CC(=O)c2ccccc2N)C(=O)O[C@@H]1C [Daptomycin] + C[C@@H]1O[C@@H]1P(=O)(O)O [Fosfomycin]
fitness
Conditions | first compound 0.125 µg/mL | first compound 0.25 µg/mL | first compound 0.5 µg/mL | first compound 1 µg/mL | first compound 2 µg/mL | first compound 4 µg/mL
B. subtilis 168 [4], partner 1.562 µg/mL | 0.686 | 0.728 | 0.771 | – | – | –
B. subtilis 168 [4], partner 3.124 µg/mL | 0.642 | 0.645 | 0.625 | – | – | –
B. subtilis 168 [4], partner 6.248 µg/mL | 0.492 | 0.468 | 0.511 | – | – | –
S. aureus DSM 20231 [2], partner 0.781 µg/mL | 0.742 | 0.659 | 0.818 | 0.879 | 0.778 | –
S. aureus DSM 20231 [2], partner 1.562 µg/mL | 0.589 | 0.586 | 0.621 | 0.609 | 0.601 | –
S. aureus DSM 20231 [2], partner 3.124 µg/mL | 0.498 | 0.496 | 0.505 | 0.495 | 0.508 | –
S. aureus Newman [3], partner 0.781 µg/mL | 0.657 | 0.674 | 0.703 | – | – | –
S. aureus Newman [3], partner 1.562 µg/mL | 0.536 | 0.534 | 0.534 | – | – | –
S. aureus Newman [3], partner 3.124 µg/mL | 0.233 | 0.172 | 0.16 | – | – | –
S. pneumoniae D39V [1], partner 1.25 µg/mL | – | – | – | 0.93 | 0.919 | –
S. pneumoniae D39V [1], partner 2.5 µg/mL | – | – | – | 0.844 | 0.845 | 0.767
S. pneumoniae D39V [1], partner 5 µg/mL | – | – | – | 0.624 | 0.64 | 0.597

B. subtilis 168 [4], first compound 1 µg/mL, one replicate
Conditions | fitness
partner 1.562 µg/mL | 0.7
partner 3.124 µg/mL | 0.501
partner 6.248 µg/mL | 0.305

Conditions | Bliss interaction score
B. subtilis 168 [8] | 0.063
S. aureus DSM 20231 [6] | -0.0509
S. aureus Newman [7] | 0.0452
S. pneumoniae D39V [5] | 0.0735

CCCCCCCCCC(=O)N[C@@H](Cc1c[nH]c2ccccc12)C(=O)N[C@H](CC(N)=O)C(=O)N[C@@H](CC(=O)O)C(=O)N[C@@H]1C(=O)NCC(=O)N[C@@H](CCCN)C(=O)N[C@@H](CC(=O)O)C(=O)N[C@H](C)C(=O)N[C@@H](CC(=O)O)C(=O)NCC(=O)N[C@H](CO)C(=O)N[C@@H]([C@H](C)CC(=O)O)C(=O)N[C@@H](CC(=O)c2ccccc2N)C(=O)O[C@@H]1C [Daptomycin] + C[n+]1ccc(-c2cc[n+](C)cc2)cc1 [Paraquat]
fitness
Conditions | first compound 0.125 µg/mL | first compound 0.25 µg/mL | first compound 0.5 µg/mL | first compound 1 µg/mL | first compound 2 µg/mL | first compound 4 µg/mL
B. subtilis 168 [4], partner 1.25 µg/mL | 0.901 | 0.93 | 0.85 | – | – | –
B. subtilis 168 [4], partner 2.5 µg/mL | 0.9 | 0.901 | 0.902 | – | – | –
B. subtilis 168 [4], partner 5 µg/mL | 0.894 | 0.857 | 0.81 | – | – | –
S. aureus DSM 20231 [2], partner 1.25 µg/mL | 0.906 | 0.9 | 0.942 | 0.932 | 0.883 | –
S. aureus DSM 20231 [2], partner 2.5 µg/mL | 0.898 | 0.923 | 0.991 | 0.968 | 0.995 | –
S. aureus DSM 20231 [2], partner 5 µg/mL | 0.93 | 0.927 | 0.924 | 1 | 0.907 | –
S. aureus Newman [3], partner 1.25 µg/mL | ≥ 1 | ≥ 1 | 0.995 | – | – | –
S. aureus Newman [3], partner 2.5 µg/mL | ≥ 1 | ≥ 1 | 0.977 | – | – | –
S. aureus Newman [3], partner 5 µg/mL | 0.974 | 0.945 | 0.9 | – | – | –
S. pneumoniae D39V [1], partner 1.5 µg/mL | – | – | – | 0.996 | 0.987 | 0.936
S. pneumoniae D39V [1], partner 3 µg/mL | – | – | – | 0.973 | 0.955 | 0.937
S. pneumoniae D39V [1], partner 6 µg/mL | – | – | – | 0.974 | 0.922 | 0.872

B. subtilis 168 [4], first compound 1 µg/mL, one replicate
Conditions | fitness
partner 1.25 µg/mL | 0.743
partner 2.5 µg/mL | 0.722
partner 5 µg/mL | 0.653

Conditions | Bliss interaction score
B. subtilis 168 [8] | 0.0589
S. aureus DSM 20231 [6] | -0.0451
S. aureus Newman [7] | 0.0526
S. pneumoniae D39V [5] | 0.0711
